From patent US10150764B2, “Substituted benzene compounds” (Epizyme, Inc., priority 2013, dated 2018) come the findings set out here.

In assay [1] the target is wild-type EZH2 (PRC2 enzyme) (Homo sapiens (Human), UniProt Q15910). Description: PRC2 enzyme assay on peptide substrate, wild-type EZH2 (H3K27me0 peptide, 3H-SAM Flashplate). Format: biochemical. The settings on record: wild-type PRC2 4 nM, read-out: WT EZH2 IC50.
Procedure: (§1) Human PRC2 enzymes were purified as 4-component enzyme complexes co-expressed in Spodoptera frugiperda (sf9) cells using a baculovirus expression system. […] The EED subunit contained an N-terminal FLAG tag that was used to purify the entire 4-component complex from sf9 cell lysates.
(§2) The assays were all performed in a buffer consisting of 20 mM bicine (pH=7.6), 0.5 mM DTT, 0.005% BSG and 0.002% Tween20, prepared on the day of use. […] DMSO (1 μL) was added to columns 11, 12, 23, 24, rows A-H for the maximum signal control, and SAH, a known product and inhibitor of PRC2 (1 μL) was added to columns 11, 12, 23, 24, rows I-P for the minimum signal control. A cocktail (40 μL) containing the wild-type PRC2 enzyme and H3K27me0 peptide or any of the Y641 mutant enzymes and H3K27me2 peptide was added by Multidrop Combi (Thermo). The compounds were allowed to incubate with PRC2 for 30 min at 25° C., then a cocktail (10 μL) containing a mixture of non-radioactive and ^3H-SAM was added to initiate the reaction (final volume=51 μL). […] The assays were stopped by the addition of non-radioactive SAM (10 μL) to a final concentration of 600 μM, which dilutes the ^3H-SAM to a level where its incorporation into the peptide substrate is no longer detectable. 50 of the reaction in the 384-well polypropylene plate was then transferred to a 384-well Flashplate and the biotinylated peptides were allowed to bind to the streptavidin surface for at least 1 h before being washed three times with 0.1% Tween20 in a Biotek ELx405 plate washer. The plates were then read in a PerkinElmer TopCount platereader to measure the quantity of ^3H-labeled peptide bound to the Flashplate surface, measured as disintegrations per minute (dpm) or alternatively, referred to as counts per minute (cpm).
In assay [2] the target is EZH2 Y641F mutant (PRC2 enzyme) (Homo sapiens (Human), UniProt Q15910, Y641F). Description: PRC2 enzyme assay on peptide substrate, EZH2 Y641F mutant (H3K27me2 peptide, 3H-SAM Flashplate). Format: biochemical. The settings on record: Y641F mutant PRC2 4 nM.
Sequence of EZH2 Y641F mutant (PRC2 enzyme) (Q15910 whole entry Y641F): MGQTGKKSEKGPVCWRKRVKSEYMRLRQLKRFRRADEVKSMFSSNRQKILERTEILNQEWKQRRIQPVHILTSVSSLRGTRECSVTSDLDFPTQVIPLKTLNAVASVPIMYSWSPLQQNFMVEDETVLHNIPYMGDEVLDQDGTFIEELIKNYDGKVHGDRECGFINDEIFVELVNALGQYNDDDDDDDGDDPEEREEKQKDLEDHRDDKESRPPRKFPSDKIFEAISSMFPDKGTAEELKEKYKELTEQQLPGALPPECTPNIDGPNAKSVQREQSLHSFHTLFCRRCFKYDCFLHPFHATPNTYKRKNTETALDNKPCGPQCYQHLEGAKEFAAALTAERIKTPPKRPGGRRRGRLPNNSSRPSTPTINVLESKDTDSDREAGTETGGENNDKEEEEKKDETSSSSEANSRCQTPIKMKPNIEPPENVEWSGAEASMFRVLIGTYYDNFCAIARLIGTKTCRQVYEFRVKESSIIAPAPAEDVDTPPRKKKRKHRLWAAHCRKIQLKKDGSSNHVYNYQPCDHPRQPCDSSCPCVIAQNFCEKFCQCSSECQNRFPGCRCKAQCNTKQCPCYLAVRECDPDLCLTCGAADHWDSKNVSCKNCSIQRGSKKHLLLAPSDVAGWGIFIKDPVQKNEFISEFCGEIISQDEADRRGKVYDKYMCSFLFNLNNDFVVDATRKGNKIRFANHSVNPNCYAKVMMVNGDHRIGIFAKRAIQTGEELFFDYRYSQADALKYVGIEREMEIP
Sequence of EZH2 Y641F mutant (PRC2 enzyme) (O75530 whole entry partner): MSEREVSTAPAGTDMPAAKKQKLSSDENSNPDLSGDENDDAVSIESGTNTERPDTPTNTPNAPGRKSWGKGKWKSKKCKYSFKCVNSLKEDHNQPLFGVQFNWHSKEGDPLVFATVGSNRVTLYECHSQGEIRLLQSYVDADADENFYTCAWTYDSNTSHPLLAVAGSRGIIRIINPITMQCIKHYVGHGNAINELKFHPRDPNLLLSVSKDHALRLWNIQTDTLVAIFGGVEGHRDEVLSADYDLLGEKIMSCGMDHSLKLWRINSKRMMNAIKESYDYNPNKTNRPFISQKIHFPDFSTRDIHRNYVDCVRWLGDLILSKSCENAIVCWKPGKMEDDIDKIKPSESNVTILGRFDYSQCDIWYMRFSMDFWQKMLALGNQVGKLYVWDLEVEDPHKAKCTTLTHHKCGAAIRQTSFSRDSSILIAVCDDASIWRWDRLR
Sequence of EZH2 Y641F mutant (PRC2 enzyme) (Q15022 whole entry partner): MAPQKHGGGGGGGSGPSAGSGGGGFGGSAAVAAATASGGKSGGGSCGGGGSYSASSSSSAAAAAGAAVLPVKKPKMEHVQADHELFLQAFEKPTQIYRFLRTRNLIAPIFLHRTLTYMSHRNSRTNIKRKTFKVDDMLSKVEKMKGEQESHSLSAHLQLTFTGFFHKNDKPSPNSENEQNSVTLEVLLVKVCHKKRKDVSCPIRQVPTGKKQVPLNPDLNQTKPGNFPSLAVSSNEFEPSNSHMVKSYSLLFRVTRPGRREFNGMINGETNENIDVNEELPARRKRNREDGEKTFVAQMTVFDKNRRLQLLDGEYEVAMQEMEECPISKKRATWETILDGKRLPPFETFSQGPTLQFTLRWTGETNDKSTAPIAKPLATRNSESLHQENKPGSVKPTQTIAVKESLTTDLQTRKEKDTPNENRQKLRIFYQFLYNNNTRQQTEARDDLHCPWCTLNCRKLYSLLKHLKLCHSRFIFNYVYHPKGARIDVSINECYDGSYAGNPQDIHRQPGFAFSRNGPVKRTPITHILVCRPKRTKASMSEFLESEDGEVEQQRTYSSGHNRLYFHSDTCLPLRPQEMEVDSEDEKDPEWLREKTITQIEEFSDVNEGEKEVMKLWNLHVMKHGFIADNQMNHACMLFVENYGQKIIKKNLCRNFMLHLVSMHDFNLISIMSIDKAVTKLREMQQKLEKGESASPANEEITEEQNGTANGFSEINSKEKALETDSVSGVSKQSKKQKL
Sequence of EZH2 Y641F mutant (PRC2 enzyme) (Q09028 whole entry partner): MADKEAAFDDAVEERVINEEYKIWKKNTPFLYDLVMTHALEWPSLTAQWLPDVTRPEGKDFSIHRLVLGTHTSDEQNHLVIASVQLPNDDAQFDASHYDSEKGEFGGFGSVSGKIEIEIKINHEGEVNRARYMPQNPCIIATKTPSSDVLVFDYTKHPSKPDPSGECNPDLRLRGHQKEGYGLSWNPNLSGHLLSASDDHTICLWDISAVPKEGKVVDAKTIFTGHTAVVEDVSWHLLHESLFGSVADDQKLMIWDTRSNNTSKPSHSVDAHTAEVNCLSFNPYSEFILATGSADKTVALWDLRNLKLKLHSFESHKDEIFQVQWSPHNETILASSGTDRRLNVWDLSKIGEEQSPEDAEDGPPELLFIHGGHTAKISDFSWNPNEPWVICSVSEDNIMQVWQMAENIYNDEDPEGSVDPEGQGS
Procedure: as §1, §2

Each structure is given as a SMILES string. Structures can show the parent of a compound that is named as a salt.

Sequence of wild-type EZH2 (PRC2 enzyme) (Q15910 whole entry): as the sequence (Q15910 whole entry Y641F) above, with F641Y counted along it
Sequence of wild-type EZH2 (PRC2 enzyme) (O75530 whole entry partner): as the sequence (O75530 whole entry partner) above
Sequence of wild-type EZH2 (PRC2 enzyme) (Q15022 whole entry partner): as the sequence (Q15022 whole entry partner) above
Sequence of wild-type EZH2 (PRC2 enzyme) (Q09028 whole entry partner): as the sequence (Q09028 whole entry partner) above

As for `CCN(c1cc(Cl)cc(C(=O)NCc2c(C)n(C)[nH]c2=O)c1C)[C@H]1CC[C@H](N(C)Cc2cccnc2)CC1` [Compound 67, 5-chloro-N-((1,5-dimethyl-3-oxo-2,3-dihydro-1H-pyrazol-4-yl)methyl)-3-(ethyl((trans)-4-(methyl(pyridin-3-ylmethyl)amino)cyclohexyl)amino)-2-methylbenzamide], the figures for the IC50 in assay [1] and in assay [2] were 0.319 µM and 0.06 µM, respectively.
With `CCn1[nH]c(=O)c(CNC(=O)c2cc(Cl)cc(N(CC)[C@H]3CC[C@H](N(C)CCOC)CC3)c2C)c1C` [Compound 65, 5-chloro-3-(ethyl((trans)-4-((2-methoxyethyl)-(methyl)-amino)-cyclohexyl)-amino)-N-((1-ethyl-5-methyl-3-oxo-2,3-dihydro-1H-pyrazol-4-yl)methyl)-2-methylbenzamide], the IC50 is 1.14 µM in assay [1] and 0.442 µM in assay [2].
Consider `CCN(c1cc(Cl)cc(C(=O)NCc2c(OC)nn(C)c2N2CCCCC2)c1C)[C@H]1CC[C@H](N(C)Cc2cccc(OC)c2)CC1` [Compound 83, 5-chloro-3-(ethyl((trans)-4-((3-methoxybenzyl)(methyl)amino)cyclohexyl)amino)-N-((3-methoxy-1-methyl-5-(piperidin-1-yl)-1H-pyrazol-4-yl)methyl)-2-methylbenzamide], for which the IC50 is 45.8 µM in assay [1] and 18.3 µM in assay [2].
As to `CCN(c1cc(Cl)cc(C(=O)NCc2c(C)n(C)[nH]c2=O)c1C)[C@H]1CC[C@H](N(C)C(C)c2cccnc2)CC1` (stereo partly drawn) [Compound 73, 5-chloro-N-((1,5-dimethyl-3-oxo-2,3-dihydro-1H-pyrazol-4-yl)methyl)-3-(ethyl((trans)-4-(methyl(1-(pyridin-3-yl)ethyl)amino)cyclohexyl)amino)-2-methylbenzamide], the IC50 turned out to be 1.29 µM in assay [1] and 0.149 µM in assay [2].
Taken in the same sequence, the figures for `CCN(c1cc(Cl)cc(C(=O)NCc2c(OC)nn(C)c2N2CCOCC2)c1C)[C@H]1CC[C@H](N(C)C)CC1` [Compound 82, 5-chloro-3-(((trans)-4-(dimethylamino)cyclohexyl) (ethyl)amino)-N-((3-methoxy-1-methyl-5-morpholino-1H-pyrazol-4-yl)methyl)-2-methylbenzamide] were 22.9 µM and 27 µM.
Turning to `CCN(c1cc(Cl)cc(C(=O)NCc2c(OC)nn(C)c2N2CCCC2)c1C)[C@H]1CC[C@H](N(C)C)CC1` [Compound 80, 5-chloro-3-(((trans)-4-(dimethylamino)cyclohexyl) (ethyl)amino)-N-((3-methoxy-1-methyl-5-(pyrrolidin-1-yl)-1H-pyrazol-4-yl)methyl)-2-methylbenzamide], the 50% inhibitory concentration (IC50) in assay [1] was over 50 µM; in assay [2], 49.4 µM.
Taken in the same sequence, the figures for `CCN(c1cc(Cl)cc(C(=O)NCc2c(C)n(C)[nH]c2=O)c1C)[C@H]1CC[C@H](N(C)Cc2cccc(OCCOC)c2)CC1` [Compound 69, 5-chloro-N-((1,5-dimethyl-3-oxo-2,3-dihydro-1H-pyrazol-4-yl)methyl)-3-(ethyl((trans)-4-((3-(2-methoxyethoxy)benzyl)(methyl)amino)cyclohexyl)amino)-2-methylbenzamide] were 0.136 µM and 0.031 µM.
For `CCN(c1cc(Cl)cc(C(=O)NCc2c(OC)nn(C)c2OC)c1C)[C@H]1CC[C@H](N(C)C)CC1` [Compound 95, 5-chloro-N-((3,5-dimethoxy-1-methyl-1H-pyrazol-4-yl)methyl)-3-(((trans)-4-(dimethylamino)cyclohexyl)(ethyl)amino)-2-methylbenzamide], the IC50 in assay [1] was over 50 µM; in assay [2], 17.7 µM.
The like results for `CCN(c1cc(Cl)cc(C(=O)NCc2c(OC)nn(C)c2C)c1C)[C@H]1CC[C@H](N(C)Cc2cccnc2)CC1` [Compound 66, 5-chloro-3-(ethyl((trans)-4-(methyl(pyridin-3-ylmethyl)amino)cyclohexyl)amino)-N-((3-methoxy-1,5-dimethyl-1H-pyrazol-4-yl)methyl)-2-methylbenzamide] were, in that order, 10.2 µM and 2.34 µM.
The like results for `CCO[C@@H]1COC[C@H]1N(CC)c1cc(Cl)cc(C(=O)NCc2c(C)[nH]n(C)c2=O)c1C` (relative stereo) [Compound 43, 5-chloro-N-((2,5-dimethyl-3-oxo-2,3-dihydro-1H-pyrazol-4-yl)methyl)-3-(((trans)-4-ethoxytetrahydrofuran-3-yl)(ethyl)amino)-2-methylbenzamide] were, in that order, over 50 µM and over 50 µM.
Take `CCN(c1cc(Cl)cc(C(=O)NCc2c(OC)nn(C)c2C)c1C)[C@H]1CC[C@H](N(C)Cc2cccc(OCCOC)c2)CC1` [Compound 68, 5-chloro-3-(ethyl((trans)-4-((3-(2-methoxyethoxy)benzyl)(methyl)amino)cyclohexyl)amino)-N-((3-methoxy-1,5-dimethyl-1H-pyrazol-4-yl)methyl)-2-methylbenzamide]: in assay [1], the IC50 was 2.59 µM.
`CCN(c1cc(Cl)cc(C(=O)NCc2c(C)nn(C)c2OC)c1C)[C@@H]1COC[C@H]1OCCOC` (relative stereo) [Compound 44, 5-chloro-3-(ethyl((trans)-4-(2-methoxyethoxy)tetrahydrofuran-3-yl)amino)-N-((5-methoxy-1,3-dimethyl-1H-pyrazol-4-yl)methyl)-2-methylbenzamide]: the IC50 in assay [1] is over 50 µM.
Regarding `CCN(c1cc(Cl)cc(C(=O)NCc2c(C(F)(F)F)[nH]n(C)c2=O)c1C)[C@H]1CC[C@H](N(C)C)CC1` [Compound 89, 5-chloro-3-(ethyl((trans)-4-(dimethylamino)cyclohexyl)amino)-2-methyl-N-((2-methyl-3-oxo-5-(trifluoromethyl)-2,3-dihydro-1H-pyrazol-4-yl)methyl)benzamide], the half-inhibitory concentration (IC50) in assay [1] and in assay [2] was over 50 µM throughout.
With `CCN(c1cc(Cl)cc(C(=O)NCc2c(C)cc3nc(C)[nH]n3c2=O)c1C)[C@H]1CC[C@H](N(C)C)CC1` [Compound 9, 5-chloro-N-((2,7-dimethyl-5-oxo-3,5-dihydro-[1,2,4]triazolo[1,5-a]pyridin-6-yl)methyl)-3-(((trans)-4-(dimethylamino)cyclohexyl)(ethyl)amino)-2-methylbenzamide], the IC50 came out at 34.5 µM in assay [1] and 11.5 µM in assay [2].
Taken in the same sequence, the figures for `CCN(c1cc(-c2ccc(CN3CCOCC3)cc2)cc(C(=O)NCc2c(OC)nn(C)c2C)c1C)[C@H]1CC[C@H](N(C)C)CC1` [Compound 53, 5-(((trans)-4-(dimethylamino)cyclohexyl) (ethyl)amino)-N-((3-methoxy-1,5-dimethyl-1H-pyrazol-4-yl)methyl)-4-methyl-4′-(morpholinomethyl)-[1,1′-biphenyl]-3-carboxamide] were 2.18 µM and 0.625 µM.
As for `CCN(c1cc(Cl)cc(C(=O)NCc2c(C)[nH]n(C(C)C)c2=O)c1C)[C@H]1CC[C@H](N(C)C)CC1` [Compound 37, 5-chloro-3-(((trans)-4-(dimethylamino)cyclohexyl)(ethyl)amino)-N-((2-isopropyl-5-methyl-3-oxo-2,3-dihydro-1H-pyrazol-4-yl)methyl)-2-methylbenzamide], the IC50 in assay [1] amounted to 15.6 µM; in assay [2] it was 2.67 µM.
Take `CCN(c1cc(Cl)cc(C(=O)NCc2c(C)[nH]n(C)c2=O)c1C)[C@@H]1COC[C@H]1OCCOC` (relative stereo) [Compound 45, 5-chloro-N-((2,5-dimethyl-3-oxo-2,3-dihydro-1H-pyrazol-4-yl)methyl)-3-(ethyl((trans)-4-(2-methoxyethoxy)tetrahydrofuran-3-yl)amino)-2-methylbenzamide]: the IC50 in assay [1] and in assay [2] was over 50 µM each time.
Take `CCn1[nH]c(=O)c(CNC(=O)c2cc(Cl)cc(N(CC)[C@H]3CC[C@H](N(C)Cc4ccc(OC)cc4)CC3)c2C)c1C` [Compound 71, 5-chloro-3-(ethyl((trans)-4-((4-methoxybenzyl)-(methyl)-amino)-cyclohexyl)-amino)-N-((1-ethyl-5-methyl-3-oxo-2,3-dihydro-1H-pyrazol-4-yl)methyl)-2-methylbenzamide]: the IC50 worked out at 1.92 µM in assay [1] and 0.504 µM in assay [2].
For `CCN(c1cc(Cl)cc(C(=O)NCc2c(C)n(C)[nH]c2=O)c1C)C1CCN(CCOC)CC1` [Compound 77, 5-chloro-N-((1,5-dimethyl-3-oxo-2,3-dihydro-1H-pyrazol-4-yl)methyl)-3-(ethyl(1-(2-methoxyethyl)piperidin-4-yl)amino)-2-methylbenzamide], the values for the IC50 in assay [1] and in assay [2] were 12.6 µM and 4.69 µM, respectively.
On to `CCN(c1cc(Cl)cc(C(=O)NCc2c(OC)nn3cccnc23)c1C)[C@H]1CC[C@H](N(C)C)CC1` [Compound 50, 5-chloro-3-(((trans)-4(dimethylamino)cyclohexyl)(ethyl)amino)-N-((2-methoxypyrazolo[1,5-a]pyrimidin-3-yl)methyl)-2-methylbenzamide], for which the IC50 in assay [1] is 27.6 µM; in assay [2], 2.71 µM.
As for `CCN(c1cc(Cl)cc(C(=O)NCc2c(OC)nn(C)c2C)c1C)C1CCN(CCc2cccc(OC)c2)CC1` [Compound 78, 5-chloro-3-(ethyl(1-(3-methoxyphenethyl)piperidin-4-yl)amino)-N-((3-methoxy-1,5-dimethyl-1H-pyrazol-4-yl)methyl)-2-methylbenzamide], the IC50 in assay [1] turned out to be 17.6 µM; in assay [2] it was 4.26 µM.
For `CCN(c1cc(Cl)cc(C(=O)NCc2c(SC)n(C)[nH]c2=O)c1C)[C@H]1CC[C@H](N(C)C)CC1` [Compound 31b, 5-chloro-3-{ethyl[(trans)-4-(dimethylamino)cyclohexyl]amino}-2-methyl-N-{[1-methyl-5-(methylsulfanyl)-3-oxo-2,3-dihydro-1H-pyrazol-4-yl]methyl}benzamide Formate], the IC50 in assay [1] came to 1.24 µM; in assay [2], 1.07 µM.
For the compound `CCN(c1cc(Cl)cc(C(=O)NCc2c(C)nc3cc[nH]n3c2=O)c1C)[C@H]1CC[C@H](N(C)C)CC1` [Compound 8, 5-chloro-3-(((trans)-4-(dimethylamino)cyclohexyl)(ethyl)amino)-2-methyl-N-((5-methyl-7-oxo-1,7-dihydropyrazolo[1,5-a]pyrimidin-6-yl)methyl)benzamide], the results for the IC50 in assay [1] and in assay [2] were 20 µM and 5.82 µM, respectively.

As usually defined, the IC50 is the midpoint of a concentration-inhibition curve.
